# Measured values as given in patent publication US12227782B2, “Method for producing protein” (priority 2018, dated 2025).
# Tested on: Trichoderma reesei X3AB1 strain
# Assay: Test 1/Test 2: amount of protein produced (Bradford method) in culture supernatant
# Type: cell-based
# Procedure: Trichoderma reesei X3AB1 strain (J. Ind. Microbiol. Biotechnol., 2012, 174: 1-9; hereinafter, referred to as X3AB1 strain) was cultured in a cellulose-containing culture medium to produce a protein containing a cellulase. As preculture, 50 mL of a culture medium was added to a 500 mL flask, spores of X3AB1 strain were inoculated at 1×10^5 cells/mL, and shaking culture was performed at 220 rpm (PRXYg-98R from PRECI CO., LTD.) at 28° C. The culture medium composition was as follows: 1% glucose, 0.14% (NH4)2SO4, 0.2% KH2PO4, 0.03% CaCl2·2H2O, 0.03% MgSO4·7H2O, 0.1% Bacto Peptone (BD Difco), 0.05% Bacto Yeast extract (BD Difco), 0.1% TWEEN® 80 (polysorbate 80), 0.1% Trace element and 50 mM tartrate buffer (pH 4.0). The composition of the Trace element was as follows: 6 mg of H3BO3, 26 mg of (NH4)6Mo7O24·4H2O, 100 mg of FeCl3·6H2O, 40 mg of CuSO4·5H2O, 8 mg of MnCl2·4H2O and 200 mg of ZnCl2 which were diluted to 100 mL with distilled water.
# Main culture was performed after 2 days of preculture. […]
# The culture solutions obtained in Comparative Example 1 and Examples 1 and 2 were centrifuged. […] The concentration of protein in the supernatant was measured by the Bradford method. The protein concentration of the supernatant was calculated on the basis of a calibration curve with bovine γ-globulin as standard protein using Quick Start Protein Assay (BioRad) based on the Bradford method, and the protein concentration was defined as an amount of protein produced. […]
# For the culture solutions obtained from Comparative Examples 2 and 3 and Examples 3 to 6, the amount of protein produced was measured in the same manner as in Test 1. […]
structure (smiles),measurement,setting,value
N[C@@H]1O[C@H](CO)[C@@H](O)[C@H](O)[C@H]1O [β-D-glucopyranosylamine],increase of maximum amount of protein produced as compared to Comparative Example 1,"Example 1: 0.5% added to initial culture medium of main culture, maximum on day 3 of culture, 10% powder cellulose medium",≥ 20%
same,increase of maximum amount of protein produced as compared to Comparative Example 1,"Example 2: 8% aqueous solution fed 0.6 g/L initial culture medium/hr at 15-63 hr (total 0.2%), maximum on day 4 of culture",≥ 20%
same,protein productivity as the amount added in the culture increased,Examples 3 to 6: fed together with glucose (38% glucose/2% or 35% glucose/5% aqueous solution) versus 40% glucose feed (Comparative Examples 2 and 3),tended to be improved
